The record followed here is patent publication US20250059220A1, “SUBSTITUTED BENZOTHIOPHENE DERIVATIVES AND METHODS OF USE THEREOF” (Merck Sharp & Dohme LLC, priority 2021, published 2025).

Molecules are shown by their SMILES.

The target in one assay is human PTPN2 (1-387) (Homo sapiens (Human), UniProt P17706). Kind of assay: Human PTPN2 Biochemical Assay. The following applies: DiFMUP substrate. The method in brief:
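Human PTPN2 (1-387) preincubated 30 min at RT with compound (10-point 3-fold series) in Tris pH 7.4 buffer with 0.5 mM DTT, then DiFMUP substrate added for 1 h at RT. Fluorescence at ex 360/em 460 nm, normalised to no-enzyme and enzyme controls; EC50 from 4-parameter fit.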

In a further assay the target is human PTPN1 (1-435) (Homo sapiens (Human), UniProt P18031). Kind of assay: Human PTPN1 Biochemical Assay. The following applies: DiFMUP substrate, read-out: PTP1B IC50. In outline:
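Read-out is DiFMUP hydrolysis fluorescence (360 nm excitation, 460 nm emission) after 1 h at room temperature, following 30 min enzyme–compound preincubation.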

human PTPN2 (1-387), sequence (P17706 other isoform, or with tags, fused parts or gaps): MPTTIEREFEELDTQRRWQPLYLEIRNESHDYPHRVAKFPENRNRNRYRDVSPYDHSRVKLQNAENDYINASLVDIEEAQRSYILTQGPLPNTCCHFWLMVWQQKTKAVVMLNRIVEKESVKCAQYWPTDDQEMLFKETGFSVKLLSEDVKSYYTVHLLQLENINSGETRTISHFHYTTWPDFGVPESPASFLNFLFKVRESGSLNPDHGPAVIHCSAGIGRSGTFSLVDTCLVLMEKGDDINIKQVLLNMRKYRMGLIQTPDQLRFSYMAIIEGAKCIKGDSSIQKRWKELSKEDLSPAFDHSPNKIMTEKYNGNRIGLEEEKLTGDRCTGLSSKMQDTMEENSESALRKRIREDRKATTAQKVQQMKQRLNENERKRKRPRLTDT
human PTPN1 (1-435), sequence (P18031 whole entry): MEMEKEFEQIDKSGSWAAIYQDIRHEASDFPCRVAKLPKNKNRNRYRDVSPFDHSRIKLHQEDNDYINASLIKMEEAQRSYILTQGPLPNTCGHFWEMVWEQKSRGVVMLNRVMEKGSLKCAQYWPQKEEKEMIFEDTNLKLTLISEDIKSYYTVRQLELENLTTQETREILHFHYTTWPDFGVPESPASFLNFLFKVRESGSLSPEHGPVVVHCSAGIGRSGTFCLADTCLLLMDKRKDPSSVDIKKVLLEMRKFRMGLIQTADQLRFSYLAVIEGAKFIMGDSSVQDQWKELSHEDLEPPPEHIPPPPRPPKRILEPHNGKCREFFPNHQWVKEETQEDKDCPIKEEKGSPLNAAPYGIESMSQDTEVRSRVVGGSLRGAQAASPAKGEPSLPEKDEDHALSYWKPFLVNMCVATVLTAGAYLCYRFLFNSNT

Consider `CC(C)(O)CCCOc1cc(C(N)=O)cc2c(C(F)(F)F)c(C(F)(F)P(=O)(O)O)sc12` [Compound 456, ((5-carbamoyl-7-((4-hydroxy-4-methylpentyl)oxy)-3-(trifluoromethyl)benzo[b]thiophen-2-yl)difluoromethyl)phosphonic acid], for which the half-inhibitory concentration (IC50) is 14.1 nM against human PTPN2 (1-387) and 23.2 nM at human PTPN1 (1-435).
Take `N#Cc1c(C(F)(F)P(=O)(O)O)sc2c(OCCCS(N)(=O)=O)cc(-c3nc[nH]n3)cc12` [Compound 457, ((3-cyano-7-(3-sulfamoylpropoxy)-5-(1H-1,2,4-triazol-3-yl)benzo[b]thiophen-2-yl)difluoromethyl)phosphonic acid]: the IC50 on human PTPN2 (1-387) and on human PTPN1 (1-435) was 2.5 nM in each case.
As to `CNS(=O)(=O)c1cc(OCCCC(F)(F)F)c2sc(C(F)(F)P(=O)(O)O)c(Br)c2c1` [Compound 459, ((3-bromo-5-(N-methylsulfamoyl)-7-(4,4,4-trifluorobutoxy)benzo[b]thiophen-2-yl)difluoromethyl)phosphonic acid], the IC50 worked out at 892 nM at human PTPN2 (1-387) and 616 nM at human PTPN1 (1-435).
For `CS(=O)(=O)CCCOc1cc(-c2cc(=O)cc[nH]2)cc2c(Br)c(C(F)(F)P(=O)(O)O)sc12` [Compound 460, ((3-bromo-7-(3-(methylsulfonyl)propoxy)-5-(4-oxo-1,4-dihydropyridin-2-yl)benzo[b]thiophen-2-yl)difluoromethyl)phosphonic acid] the same measures were 2.5 nM and 2.5 nM.
For `CS(=O)(=O)c1ccc(COc2cc(C(N)=O)cc3c(Br)c(C(F)(F)P(=O)(O)O)sc23)c(C#N)c1` [Compound 463, ((3-bromo-5-carbamoyl-7-((2-cyano-4-(methylsulfonyl)benzyl)oxy)benzo[b]thiophen-2-yl)difluoromethyl)phosphonic acid] the same measures were 6.7 nM and 14.8 nM.
Turning to `NC(=O)c1cc(OCC(F)CC(F)(F)F)c2sc(C(F)(F)P(=O)(O)O)c(Br)c2c1` (stereo not drawn) [Compound 464, ((3-bromo-5-carbamoyl-7-(2,4,4,4-tetrafluorobutoxy)benzo[b]thiophen-2-yl)difluoromethyl)phosphonic acid], the results for the half-maximal inhibitory concentration (IC50) against human PTPN2 (1-387) and at human PTPN1 (1-435) were 39.7 nM and 42.6 nM, respectively.

By IC50 is commonly meant the concentration at which inhibition is half-maximal.
